According to PubChem BioAssay AID2060623 (Molecular Pharmacology Branch, DTP, NCI, 2025):
Where “and” joins values, the source holds several entries; their conditions need not be identical. Equal values may be shown once.

Test system: 227483-062-R1-J1-PDC complex spheroids with HUVEC/MSC, viability
Experiment: Anticancer human tumor 227483-062-R1-J1-PDC patient-derived pancreatic carcinoma cell line growth inhibition [CLK]
Details: for viability, T/C: stronger effect = lower value
From the text: A high-throughput screen of multi-cell type tumor spheroids was designed to identify active combinations of […] and targeted small molecules. Complex spheroids include a stromal component modeled by human endothelial cells (HUVEC) and fibroblasts modeled by human mesenchymal stem cells (MSCs). The concentration ranges selected for each drug and investigational agent were based upon clinically achievable concentrations if the clinical Cmax of the agent was known.
Compounds. The drugs and investigational agents: cirtuvivint (SM08502; NSC835563), CC-671 (NSC850746), vemurafenib (NSC761431), tapotoclax (NSC804041), sotorasib (NSC818433), adagrasib (NSC831453), MRTX-1133 (NSC836407), BAY2416964 (NSC825713), copanlisib (NSC816437), inavolisib (NSC800729), abemaciclib (NSC768073), osimertinib (NSC779217), entinostat (NSC756642), eltanexor (KPT-8602, NSC794443), venetoclax (NSC766270), ceralasertib (NSC777638), bortezomib (NSC756655), olaparib (NSC753686), talazoparib (NSC767125), alisertib (NSC759677), peposertib (NSC802822), gemcitabine (NSC613327), 5-fluorouracil (NSC19893), SN-38 (NSC673596), oxaliplatin (NSC266046), paclitaxel (NSC125973), and doxorubicin (NSC123127), were obtained from the National Cancer Institute (NCI) Developmental Therapeutics Program Chemical Repository. The FDA-approved anticancer drug set is available from the Developmental Therapeutics Program at https://dtp.cancer.gov/organization/dscb/obtaining/available plates.htm. […] The stock solutions were prepared in dimethyl sulfoxide (DMSO, Sigma-Aldrich, St. Louis, MO, cat. D2650), except for the platinum complexes which were prepared in saline (Quality Biological, Gaithersburg, MD, cat. 114-055-101), at 800-fold the tested concentration and stored at -70 degrees C prior to their use. All drugs and investigational agents were tested over a range starting from a high concentration at or near the clinical Cmax and decreasing in half-log increments. If the clinical Cmax for an agent had not been determined, the highest concentration tested was 10 microM.
Cell Culture. All cells were maintained in an incubator at 37 degrees C and 5% CO2 with 95% humidity. The PDC lines were cultured according to standard operating procedures established by the NCI PDMR. Briefly, all PDCs were thawed and cultured in Matrigel-coated flasks prepared with a working solution of 1X Ham's F-12 nutrient mix, without supplementation (Invitrogen, Waltham, MA, cat. 11765054), 100 U/mL penicillin-streptomycin (Invitrogen, cat. 15140122), and 2.5% Matrigel (Corning Inc., Corning, NY, cat. 354248) for the first three passages. The 947758-054-R-J2-PDC line was cultured in 6B/Colon 1A media, which includes advanced DMEM/F-12 (Thermo Fisher Scientific, cat. 12634028), 10 mM HEPES (Thermo Fisher Scientific, cat. 15630080), 1X GlutaMAX supplement (Thermo Fisher Scientific, cat. 35050061), 0.1 mg/mL primocin (InvivoGen, cat. ant-pm-2), 10% defined fetal bovine serum, heat inactivated (HyClone Laboratories Inc., cat. SH30070.03HI), 1.25 mM N-Acetyl-L-cysteine (Sigma-Aldrich, cat. A9165), 10 mM nicotinamide (Sigma-Aldrich, cat. N0636), 1X B-27 supplement (Thermo Fisher Scientific, cat. 17504044), 1X N-2 supplement (Thermo Fisher Scientific, cat. 17502048), and 10 microM Y-27632 dihydrochloride (Tocris Bioscience, cat. 1254). The 876862-298-R-J1-PDC was cultured in 6E media, which includes all 6B/Colon 1A media components plus 50% L-WRN conditioned media (ATCC, cat. CRL-3276), 50 ng/mL recombinant human EGF recombinant protein (hEGF; Thermo Fisher Scientific, cat. PHG0311), 10 ng/mL recombinant human fibroblast growth factor 10 (hGFG-10; PeproTech, cat. 100-26), 1 ng/mL recombinant human fibroblast growth factor 2 (hFGF-2; PeproTech, cat. 100-18B), and 1 µM prostaglandin E2 (PGE2; Tocris, cat. 2296). The 227483-062-R1-J1-PDC line was cultured in Panc media, containing all 6E components except hFGF-2, with the addition of 500 nM SB-431542 (Selleckchem, cat. S1067) and 10 nM gastrin (Tocris, cat. 3006). […]
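Note: spheroids exposed to compounds for seven days before readout.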
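Throughout, for viability, T/C: percent of DMSO vehicle control luminescence as 100% viability.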

## C=C(F)C(=O)N1CCN(c2nc(OCC3CCCN3C)nc3c2CCN(c2cccc4cccc(Cl)c24)C3)CC1CC#N (centres undefined)
Compound 0.0316 µM
  viability, T/C: 107% and 89.9%
Compound 0.1 µM
  viability, T/C: 108% and 97.9%
Compound 0.316 µM
  viability, T/C: 109% and 91.9%
Compound 1 µM
  viability, T/C: 113% and 122%
Compound 3.16 µM
  viability, T/C: 86.3% and 89%
Compound 10 µM
  viability, T/C: 19% and 28%
Curve of compound
  IC50: 5880 nM and 6600 nM

## NC(=O)C(=Cn1cnc(-c2cc(C(F)(F)F)cc(C(F)(F)F)c2)n1)c1cncnc1 + CNC(=O)c1ccc(Nc2nc(OC3CCCC3)c3c(-c4ccc5nc(C)oc5c4)c[nH]c3n2)c(OC)c1
Curve of first compound, second compound 0.0316 µM
  IC50: 379 nM
Curve of first compound, second compound 0.1 µM
  IC50: 332 nM
Curve of first compound, second compound 0.316 µM
  IC50: 192 nM
Curve of first compound, second compound 1 µM
  IC50: 31.8 nM
Curve of first compound, second compound 3.16 µM
  IC50: < 9.49 nM
Curve of first compound, second compound 10 µM
  IC50: < 9.49 nM
Second compound 0.0316 µM, first compound 0.00949 µM
  viability, T/C: 73.6%
Second compound 0.0316 µM, first compound 0.03 µM
  viability, T/C: 81.8%
Second compound 0.0316 µM, first compound 0.0949 µM
  viability, T/C: 73.2%
Second compound 0.0316 µM, first compound 0.3 µM
  viability, T/C: 53.4%
Second compound 0.0316 µM, first compound 0.949 µM
  viability, T/C: 29.8%
Second compound 0.0316 µM, first compound 3 µM
  viability, T/C: 9.82%
Second compound 0.1 µM, first compound 0.00949 µM
  viability, T/C: 86.3%
Second compound 0.1 µM, first compound 0.03 µM
  viability, T/C: 77.2%
Second compound 0.1 µM, first compound 0.0949 µM
  viability, T/C: 62.4%
Second compound 0.1 µM, first compound 0.3 µM
  viability, T/C: 60.7%
Second compound 0.1 µM, first compound 0.949 µM
  viability, T/C: 24.6%
Second compound 0.1 µM, first compound 3 µM
  viability, T/C: 5.03%
Second compound 0.316 µM, first compound 0.00949 µM
  viability, T/C: 61.4%
Second compound 0.316 µM, first compound 0.03 µM
  viability, T/C: 80.7%
Second compound 0.316 µM, first compound 0.0949 µM
  viability, T/C: 61.2%
Second compound 0.316 µM, first compound 0.3 µM
  viability, T/C: 41%
Second compound 0.316 µM, first compound 0.949 µM
  viability, T/C: 14.7%
Second compound 0.316 µM, first compound 3 µM
  viability, T/C: 2.56%
Second compound 1 µM, first compound 0.00949 µM
  viability, T/C: 46.4%
Second compound 1 µM, first compound 0.03 µM
  viability, T/C: 56.3%
Second compound 1 µM, first compound 0.0949 µM
  viability, T/C: 43.4%
Second compound 1 µM, first compound 0.3 µM
  viability, T/C: 25.6%
Second compound 1 µM, first compound 0.949 µM
  viability, T/C: 6.77%
Second compound 1 µM, first compound 3 µM
  viability, T/C: 2%
Second compound 3.16 µM, first compound 0.00949 µM
  viability, T/C: 43%
Second compound 3.16 µM, first compound 0.03 µM
  viability, T/C: 35.8%
Second compound 3.16 µM, first compound 0.0949 µM
  viability, T/C: 26.9%
Second compound 3.16 µM, first compound 0.3 µM
  viability, T/C: 11.7%
Second compound 3.16 µM, first compound 0.949 µM
  viability, T/C: 2.83%
Second compound 3.16 µM, first compound 3 µM
  viability, T/C: 2.08%
Second compound 10 µM, first compound 0.00949 µM
  viability, T/C: 40.6%
Second compound 10 µM, first compound 0.03 µM
  viability, T/C: 37.3%
Second compound 10 µM, first compound 0.0949 µM
  viability, T/C: 22%
Second compound 10 µM, first compound 0.3 µM
  viability, T/C: 7.23%
Second compound 10 µM, first compound 0.949 µM
  viability, T/C: 2.36%
Second compound 10 µM, first compound 3 µM
  viability, T/C: 1.41%
